From patent US11267825B2 (AICURIS GMBH & CO. KG, priority 2017, dated 2022)

Legend:
HBV = assay: Determination of HBV DNA from the supernatants of HepAD38 cells (anti-HBV activity); assay type: cell-based, hepatitis B virus; conditions: Hepatitis B virus, 144 h; HBV DNA in HepAD38 supernatant at day 6; read-out: Cell Activity (EC50)
Procedure, shortened: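 EC50 values were obtained by non-linear regression of HBV DNA copy numbers measured by qPCR against pCH-9/3091 plasmid standards. The DNA came from filtered supernatants collected on day 6. Before that, tetracycline-withdrawn HepAD38 cells had been exposed to serial half-log compound dilutions, with tetracycline-treated cells as the non-producing control.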

HBV core protein = HBV core protein (UniProt P03146); assay type: biochemical; conditions: read-out: Assembly Activity (IC50); BODIPY-FL labelled core protein, assembly started with NaCl, read after 6 min
Procedure, shortened: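 Compounds tested at 8 concentrations in 0.5-log steps from 100, 31.6 or 10 μM against 1.0–2.0 μM BODIPY-FL-labelled Cys150 core dimers (residues 1–149), 50 mM HEPES pH 7.5. NaCl ([…] final) triggered assembly; quenching read at 6 min, 477/525 nm, with 2.5 M and 0 M NaCl as controls; EC50 by nonlinear fit.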

Sequence of HBV core protein (P03146 whole entry, looked up, the tested form may be a part): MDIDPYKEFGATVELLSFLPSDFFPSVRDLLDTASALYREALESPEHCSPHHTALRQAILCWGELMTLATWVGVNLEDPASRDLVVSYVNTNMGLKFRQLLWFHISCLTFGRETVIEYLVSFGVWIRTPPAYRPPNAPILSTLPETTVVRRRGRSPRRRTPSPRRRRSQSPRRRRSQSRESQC

Row | SMILES | EC50 (HBV) | IC50 (HBV core protein)
1 | C[C@H](O)CNc1nc2c(s1)CN(C(=O)c1cc3ccccc3[nH]1)CC2 [Example 99, (2S)-1-{[5-(1H-indole-2-carbonyl)-4H,5H,6H,7H-[1,3]thiazolo[5,4-c]pyridin-2-yl]amino}propan-2-ol] | < 1 µM | < 5 µM
2 | Nc1nc2c(s1)CN(C(=O)c1cc3c(Cl)ccc(Cl)c3[nH]1)CC2 [Example 177, 5-(4,7-dichloro-1H-indole-2-carbonyl)-4H,5H,6H,7H-[1,3]thiazolo[5,4-c]pyridin-2-amine] | < 100 µM | < 100 µM
3 | CC(C)(C)OC(=O)N1CCOC(CNc2nc3c(s2)CN(C(=O)c2cc4ccccc4[nH]2)CC3)C1 (stereo not drawn) [Example 273, tert-butyl 2-({[5-(1H-indole-2-carbonyl)-4H,5H,6H,7H-[1,3]thiazolo[5,4-c]pyridin-2-yl]amino}methyl)morpholine-4-carboxylate] | < 1 µM | 5 to 10 µM
4 | O=C(c1cc2c(Cl)cccc2[nH]1)N1CCc2nc(NCC3CCOC3)sc2C1 (stereo not drawn) [Example 121, 5-(4-chloro-1H-indole-2-carbonyl)-N-[(oxolan-3-yl)methyl]-4H,5H,6H,7H-[1,3]thiazolo[5,4-c]pyridin-2-amine] | < 1 µM | < 5 µM
5 | CCc1ccc(F)c2[nH]c(C(=O)N3CCc4nc(N)sc4C3)cc12 [Example 8, 5-(4-ethyl-7-fluoro-1H-indole-2-carbonyl)-4H,5H,6H,7H-[1,3]thiazolo[5,4-c]pyridin-2-amine] | < 1 µM | < 5 µM
6 | CCc1cccc2[nH]c(C(=O)N3CCc4nc(NC(=O)C5(C)CC5)sc4C3)cc12 [Example 333, N-[5-(4-ethyl-1H-indole-2-carbonyl)-4H,5H,6H,7H-[1,3]thiazolo[5,4-c]pyridin-2-yl]-1-methylcyclopropane-1-carboxamide] | < 1 µM | < 5 µM
7 | Cc1nc2c(s1)CN(C(=O)c1cc3c(C)cccc3[nH]1)CC2 [Example 184, 4-methyl-2-{2-methyl-4H,5H,6H,7H-[1,3]thiazolo[5,4-c]pyridine-5-carbonyl}-1H-indole] | < 1 µM | < 5 µM
8 | O=C(c1cc2c(F)ccc(F)c2[nH]1)N1CCc2nc(NCC3CCOC3)sc2C1 (stereo not drawn) [Example 122, 5-(4,7-difluoro-1H-indole-2-carbonyl)-N-[(oxolan-3-yl)methyl]-4H,5H,6H,7H-[1,3]thiazolo[5,4-c]pyridin-2-amine] | < 1 µM | < 5 µM
9 | O=C(c1cc2ccccc2[nH]1)N1CCc2nc(NCC3(O)COC3)sc2C1 [Example 44, 3-({[5-(1H-indole-2-carbonyl)-4H,5H,6H,7H-[1,3]thiazolo[5,4-c]pyridin-2-yl]amino}methyl)oxetan-3-ol] | < 1 µM | < 5 µM
10 | NCc1nc2c(s1)CN(C(=O)c1cc3ccccc3[nH]1)CC2 [Example 18, [5-(1H-indole-2-carbonyl)-4H,5H,6H,7H-[1,3]thiazolo[5,4-c]pyridin-2-yl]methanamine] | 1 to 10 µM | < 100 µM
11 | Cc1cc(C)c2[nH]c(C(=O)N3CCc4nc(N)sc4C3)cc2c1 [Example 137, 5-(5,7-dimethyl-1H-indole-2-carbonyl)-4H,5H,6H,7H-[1,3]thiazolo[5,4-c]pyridin-2-amine] | < 100 µM | < 100 µM
12 | O=C(c1cc2c(F)ccc(F)c2[nH]1)N1CCc2nc(NC3CCOC3)sc2C1 (stereo not drawn) [Example 132, 5-(4,7-difluoro-1H-indole-2-carbonyl)-N-(oxolan-3-yl)-4H,5H,6H,7H-[1,3]thiazolo[5,4-c]pyridin-2-amine] | < 1 µM | < 5 µM
13 | O=C(c1cc2ccccc2[nH]1)N1CCc2nc(OCc3ccccc3)sc2C1 [Example 158, 2-[2-(benzyloxy)-4H,5H,6H,7H-[1,3]thiazolo[5,4-c]pyridine-5-carbonyl]-1H-indole] | 1 to 10 µM | < 100 µM
14 | CNC(=O)Nc1nc2c(s1)CN(C(=O)c1cc3c(Cl)cc(F)cc3[nH]1)CC2 [Example 266, 1-[5-(4-chloro-6-fluoro-1H-indole-2-carbonyl)-4H,5H,6H,7H-[1,3]thiazolo[5,4-c]pyridin-2-yl]-3-methylurea] | < 1 µM | < 5 µM
15 | O=C(c1cc2ccccc2[nH]1)N1CCc2nc(CNCc3ccccc3)sc2C1 [Example 74, Benzyl({[5-(1H-indole-2-carbonyl)-4H,5H,6H,7H-[1,3]thiazolo[5,4-c]pyridin-2-yl]methyl})amine] | 1 to 10 µM | < 100 µM
16 | O=C(c1cc2c(F)cc(F)cc2[nH]1)N1CCc2nc(NC3(CO)CCC3)sc2C1 [Example 218, (1-{[5-(4,6-difluoro-1H-indole-2-carbonyl)-4H,5H,6H,7H-[1,3]thiazolo[5,4-c]pyridin-2-yl]amino}cyclobutyl)methanol] | < 1 µM | 5 to 10 µM
17 | N#Cc1cc(F)cc2[nH]c(C(=O)N3CCc4nc(N)sc4C3)cc12 [Example 77, 2-{2-amino-4H,5H,6H,7H-[1,3]thiazolo[5,4-c]pyridine-5-carbonyl}-6-fluoro-1H-indole-4-carbonitrile] | < 1 µM | < 5 µM
18 | CC(C)(C)OC(=O)N1CCC(CNc2nc3c(s2)CN(C(=O)c2cc4ccccc4[nH]2)CC3)C1 (stereo not drawn) [Example 392, tert-butyl 3-({[5-(1H-indole-2-carbonyl)-4H,5H,6H,7H-[1,3]thiazolo[5,4-c]pyridin-2-yl]amino}methyl)pyrrolidine-1-carboxylate] | < 1 µM | < 5 µM
19 | CNC(=O)Nc1nc2c(s1)CN(C(=O)c1cc3ccccc3[nH]1)CC2 [Example 28, 1-[5-(1H-indole-2-carbonyl)-4H,5H,6H,7H-[1,3]thiazolo[5,4-c]pyridin-2-yl]-3-methylurea] | < 1 µM | < 5 µM
20 | CC(O)CNc1nc2c(s1)CN(C(=O)c1cc3c(F)ccc(F)c3[nH]1)CC2 (stereo not drawn) [Example 144, 1-{[5-(4,7-difluoro-1H-indole-2-carbonyl)-4H,5H,6H,7H-[1,3]thiazolo[5,4-c]pyridin-2-yl]amino}propan-2-ol] | < 1 µM | < 5 µM
21 | O=C(c1cc2cc(F)c(Cl)cc2[nH]1)N1CCc2nc(NCC3CCOC3)sc2C1 (stereo not drawn) [Example 239, 5-(6-chloro-5-fluoro-1H-indole-2-carbonyl)-N-[(oxolan-3-yl)methyl]-4H,5H,6H,7H-[1,3]thiazolo[5,4-c]pyridin-2-amine] | < 1 µM | < 5 µM
22 | O=C(c1cc2c(Br)cccc2[nH]1)N1CCc2nc(NCC3(O)CCC3)sc2C1 [Example 364, 1-({[5-(4-bromo-1H-indole-2-carbonyl)-4H,5H,6H,7H-[1,3]thiazolo[5,4-c]pyridin-2-yl]amino}methyl)cyclobutan-1-ol] | < 1 µM | < 5 µM
23 | O=C(c1cc2ccccc2[nH]1)N1CCc2nc(NCC3CCNC3)sc2C1 (stereo not drawn) [Example 389, 5-(1H-indole-2-carbonyl)-N—[(pyrrolidin-3-yl)methyl]-4H,5H,6H,7H-[1,3]thiazolo[5,4-c]pyridin-2-amine] | 1 to 10 µM | < 5 µM
24 | Cc1nc2c(s1)CN(C(=O)c1cc3c(C)cc(F)cc3[nH]1)CC2 [Example 190, 6-fluoro-4-methyl-2-{2-methyl-4H,5H,6H,7H-[1,3]thiazolo[5,4-c]pyridine-5-carbonyl}-1H-indole] | < 1 µM | < 5 µM
